Where “and” joins values, the source holds several entries; their conditions need not be identical. Equal entries are not always repeated.

Sequence of Probable nicotinate-nucleotide adenylyltransferase (P65502 whole entry): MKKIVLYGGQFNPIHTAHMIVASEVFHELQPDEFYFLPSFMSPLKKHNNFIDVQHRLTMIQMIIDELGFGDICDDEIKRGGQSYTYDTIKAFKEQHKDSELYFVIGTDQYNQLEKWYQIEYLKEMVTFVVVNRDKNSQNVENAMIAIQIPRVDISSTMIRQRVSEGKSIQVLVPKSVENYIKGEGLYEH

This assay concerns the target Probable nicotinate-nucleotide adenylyltransferase (Staphylococcus aureus (strain N315), UniProt P65502).
Compound `O=C1C(=O)N(c2nc3ccc(Cl)cc3s2)C(c2ccco2)C1C(=O)c1ccco1` (centres undefined) registered an IC50 of 56.8 µM.
To `CCOc1ccc(CN=Nc2ccc(S(=O)(=O)Nc3ccccc3C(=O)O)cc2[N+](=O)[O-])cc1` belongs 15.6 µM; to `O=C(O)Cc1sc(N=NCc2ccccc2)nc1-c1ccccc1`, 27.7 µM; to `C1=NC2CCCC2C(N2CCCC2)=C1` (centres undefined), 50 µM.
The compound `Cc1ccccc1COc1ccc(C(=O)C2C(=O)C(=O)N(CCCn3ccnc3)C2c2ccco2)cc1` (centres undefined) had an IC50 of 80 µM.
With `Cc1ccc(Nc2nnc(SCC(=O)C(C#N)c3nc4ccccc4[nH]3)s2)c(C)c1` (centres undefined) [2-(1,3-dihydrobenzimidazol-2-ylidene)-4-[[5-(2,4-dimethylanilino)-1,3,4-thiadiazol-2-yl]thio]-3-oxobutanenitrile], the IC50 is 26.7 µM and 21.4 µM.
`Cc1ccc(-n2[nH]c(C)c(C(c3cccc(O)c3)c3c(C)[nH]n(-c4ccc(C)c(C)c4)c3=O)c2=O)cc1C` [2-(3,4-dimethylphenyl)-4-[[1-(3,4-dimethylphenyl)-5-hydroxy-3-methyl-1H-pyrazol-4-yl](3-hydroxyphenyl)methyl]-5-methyl-2,4-dihydro-3H-pyrazol-3-one] showed an IC50 of 15.1 µM.
As for `N#CC1C(=S)N=C(N)C(c2nc(-c3ccccc3)cs2)C12CCCCC2` (centres undefined) [2-amino-4-mercapto-1-(4-phenyl-2-thiazolyl)-3-azaspiro[5.5]undeca-2,4-diene-5-carbonitrile], the figure is 23.2 µM.
The compound `Cc1cc(N2C(=O)C(=O)C(C(=O)c3ccc(C)o3)C2c2ccc(OCc3ccccc3)cc2)no1` (centres undefined) [3-(5-methylfuran-2-yl)carbonyl-1-(5-methyl-1,2-oxazol-3-yl)-4-oxidanyl-2-(4-phenylmethoxyphenyl)-2H-pyrrol-5-one] returned an IC50 of 28.9 µM.
`N#CC1C(=S)N=C(N)C(c2nc(-c3ccccc3)cs2)C12CCCC2` (centres undefined) [7-amino-9-mercapto-6-(4-phenyl-2-thiazolyl)-8-azaspiro[4.5]deca-7,9-diene-10-carbonitrile] yielded an IC50 of 19.1 µM.
Take `Cc1cccc(C)c1Nc1nnc(SCC(=O)C(C#N)c2nc3ccccc3[nH]2)s1` (centres undefined) [MLS000392242]: the IC50 worked out at 25.2 µM.
`CCc1nnc(NS(=O)(=O)c2ccc(N=CCC(=O)c3ccc4ccccc4c3)cc2)s1` [N-(5-Ethyl-[1,3,4]thiadiazol-2-yl)-4-(3-naphthalen-2-yl-3-oxo-propenylamino)-benzenesulfonamide]: the IC50 was 29.7 µM.
The compound `CC(=NNC(=O)c1cccc(N=NC(C)c2ccco2)c1)c1ccco1` (centres undefined) [N-[1-(2-furanyl)ethylideneamino]-3-[2-[1-(2-furanyl)ethylidene]hydrazinyl]benzamide] had an IC50 of 14.8 µM.
`Cc1ccc(-n2c(O)cc(N(CCc3ccccc3)C(=S)Nc3ccc(N(C)C)cc3)c2O)cc1` [SMR000159829] came in with an IC50 of 77.7 µM.
As to `Cc1[nH]n(-c2ccc(Cl)cc2)c(=O)c1C(c1ccccc1O)c1c(C)[nH]n(-c2ccc(Cl)cc2)c1=O` [SMR000171531], inhibition was half-maximal at 21.1 µM (IC50).
The compound `COc1cccc(OCc2cc(CN=Nc3ccc(C(=O)O)cc3)ccc2OC)c1` [SMR000415960] came in with an IC50 of 25.5 µM.
`Nc1ccccc1C(=O)NNC(=O)C(=O)CC(=O)c1ccccc1` [SMR000427706]: the midpoint of inhibition, the IC50, lay at 12 µM.
For the compound `C#CCN(C[C@@H]1c2c(c(O)n(-c3ccccc3)c2O)C[C@@H](OC(=O)Nc2cccs2)[C@H]1OC(=O)Nc1cccs1)S(=O)(=O)c1ccc(C)cc1` [[(3aR,5R,6S,7S,7aS)-7-[[(4-methylphenyl)sulfonyl-prop-2-ynyl-amino]methyl]-1,3-bis(oxidanylidene)-2-phenyl-6-(thiophen-2-ylcarbamoyloxy)-3a,4,5,6,7,7a-hexahydroisoindol-5-yl] N-thiophen-2-ylcarbamate], the IC50 was found to be 34.5 µM.
Take `CCOC(=O)c1ccccc1-n1c(O)c2c(c1O)C(C=Cc1ccccc1)c1sc(=O)[nH]c1S2` (centres undefined) [ethyl 2-[2,5,7-trioxo-8-[(E)-2-phenylethenyl]-3,4a,7a,8-tetrahydropyrrolo[2,3]thiopyrano[4,5-b][1,3]thiazol-6-yl]benzoate]: the IC50 is 45.9 µM.

The record behind these values is BindingDB's records for doi:10.7270/Q2BV7F7H (Burnham Center For Chemical Genomics, 2012).
